Data on 8 molecules can be found in patent US9486502B2, “Methods of administering interferon gamma to absorb fluid from the subretinal space” (The United States of America, as represented by the …, priority 2008, dated 2016).

One assay has as its system hfRPE monolayers. In words: fluid transport (JV, TEP, RT) across hfRPE monolayers in modified Üssing chamber. The format is cell-based, human. The source says:
Confluent monolayers of hfRPE cultured on transwells were mounted in a modified Üssing chamber and transepithelial water flow measurements (JV) were made with a capacitance probe technique as described previously in Maminishkis, A., et al., Invest Ophthalmol Vis Sci, 2006, 47, 3612-3624; Shi, G., et al., Invest Ophthalmol Vis Sci, 2008, 49, 4620-4630; Edelman, J. L., et al., Invest Ophthalmol Vis Sci, 1991, 32, 3033-3040; Jiang, C., et al., Science, 1993, 262, 424-427; and Maminishkis, A., et al., Invest Ophthalmol Vis Sci, 2002, 43, 3555-3566, each incorporated herein by reference in its entirety.
Tissue viability was ascertained by recording transepithelial potential (TEP) and total tissue resistance (RT). It should be noted that the solution composition changes in this chamber were relatively slow (≈1-2 chamber volumes per minute) and the data sampling rate was once per minute, more than two orders of magnitude slower than the sampling rate in the electrophysiology chamber (see below). Therefore it was not possible to record fast changes, in seconds or minutes, in JV, TEP, or RT. After addition of IFNγ to the apical or basal baths, steady-state JV, TEP, and RT were recorded for 20-30 minutes. In control experiments, successive additions of IFNγ were made to test for the repeatability and reversibility of responses. To block IFNγ effects, RPE cells were incubated for 30-60 minutes with a blocking antibody against IFNγ R1, JAK inhibitor I, PKA inhibitors (H-89, EMD Biosciences; RP-8-Br-cAMPS, Sigma-Aldrich), nitric oxide synthase inhibitor (aminoguanidine hydrochloride, Sigma-Aldrich), P38 MAPK inhibitors (SB203580 or SB20290), or CHX. Other components of this signaling pathway were studied using P38 MAPK inhibitors (SB203580 and SB202190). Relatively specific Cl channel inhibitors, CFTRinh-172 or DIDS (EMD Biosciences, La Jolla, Calif.), were used to block cAMP or Ca^2+-activated Cl channels; experiments with CFTRinh-172 were performed as described in Muanprasat, C., et al., J Gen Physiol, 2004, 124, 125-137, incorporated herein by reference in its entirety. In chronic experiments, paired hfRPE tissues with matched RT values were incubated for 4-24 hours with IFNγ or CHX. The subsequent changes in JV, RT, and TEP were measured in Ringer's solution or serum free cell culture media as previously described in Shi, G., et al., Invest Ophthalmol Vis Sci, 2008 and Maminishkis, A., et al., Invest Ophthalmol Vis Sci, 2006, 47, 3612-3624, each incorporated herein by reference in its entirety. Intracellular levels of NO were elevated with 1-Hydroxy-2-oxo-3-(3-aminopropyl)-3-isopropyl-1-triazene (NOC-5, Enzo Life Sciences, Plymouth, Pa.). 8-Br-cGMP was purchased from Sigma-Aldrich.

For a further assay, the system named is hfRPE cells. Kind of assay: immunoblotting of JAK-STAT / MAP kinase signalling proteins in hfRPE. The class given is cell-based, human. Particulars: 4 hours. The protocol: Immunoblotting was performed as previously described in Li, R. et al., 2007, Invest Ophthalmol Vis Sci, 48, 5722-5732, incorporated by reference in its entirety herein. Primary cultures of hfRPE and native human adult RPE cells were lysed using RIPA buffer (Sigma-Aldrich) supplemented with proteinase inhibitor cocktail (Roche). Total protein in the supernatant was measured (BCA™ protein assay, Pierce Biotechnology) and 20 µg of protein from cell lysate supernatants was electrophoresed on a 4-12% gradient Bis-Tris NuPAGE gel (Invitrogen) under reduced or non-reduced conditions. Resolved proteins were transferred to nitrocellulose membranes (membranes and XCell II™ Blot Module, Invitrogen).
The membranes were incubated with mouse anti-human IFNγ R1 monoclonal antibody (R&D Systems), anti-human IFNγ R2 (Santa Cruz Biotechnology), anti-human IFNAR1, anti-human IFNAR2 (Abcam), anti-IRF1, anti-IRF2, anti-IRF8 (Santa Cruz Biotechnology) or anti-CFTR antibody 217 (Cystic Fibrosis Foundation Therapeutics Inc., Bethesda, Md.), after blocking non-specific binding ((StartingBlock™ T20 (TBS), Pierce Biotechnology). Membranes were then incubated with horseradish peroxidase (HRP) conjugated secondary antibody (Pierce Biotechnology) and visualized using Supersignal® West Dura Extended Duration Substrate (Pierce Biotechnology) and imaged using an Autochemie™ system (UVP, Upland, Calif.). The antibody-specific bands for IRF-1, IRF-2, ICSBP (IRF-8) and GAPDH were around 91 kDa, […], respectively.
For phosphorylation studies, cells were starved for 24 hours in serum-free medium (“SFM,” MEM-α modification medium containing non-essential amino acids and Glutamine-Penicillin-Streptomycin). Cells were treated with IFNγ (5-50 ng/ml) in SFM at various time points at 37° C. and lysed with RIPA buffer supplemented with proteinase inhibitor cocktail (Roche) and Halt™ phosphatase inhibitor cocktail (Pierce Biotechnology). 40 μg of protein was electrophoresed. As in the immunoblotting experiments described above, except that the membranes were incubated with anti-phospho-p38 MAP kinase (Thr180/Tyr182), anti-p38 MAP kinase, anti-phospho-Stat1 (Tyr701), anti-phospho-Stat1 (Ser727) or anti-Stat1 antibodies, respectively (each from Cell signaling Technology, Danvers, Mass.). The antibody-specific bands for STAT1/phospho-STAT1 (Tyr701) were around 84 kDa. GAPDH was blotted together with anti-GAPDH antibody (Abcam) and used as loading control. Cyclohexamide (“CHX”; Sigma-Aldrich), a protein synthesis inhibitor, was used at 62 μM.
For CFTR immunoblotting analysis, confluent monolayers of hfRPE were homogenized on ice in isolation solution (250 mM Sucrose, 10 mM Tris-HCl, 10 mM MgCl2, 1 mM CaCl2, pH 7.4) supplemented with Halt™ protease inhibitor cocktail, EDTA-free. Nuclei and intact cells were removed with centrifugation (900×g for 10 minutes at 4° C., followed by centrifugation at 10,000×g for 5 minutes). Crude plasma membrane proteins were collected after centrifugation at 100,000×g for 1 hour at 4° C.
Background: In western blotting, separated proteins are transferred to a membrane and probed.

The mark [1] stands for this setting: SB203580 pretreatment ≧30 minutes, n=6.
Where [2] appears, read: H-89 40 μM pre-treatment 30 minutes.

Counter-ions that a name gives are not always drawn.

Consider `Nc1nc2c(nc(Br)n2[C@@H]2O[C@@H]3COP(=O)(O)O[C@H]3[C@H]2O)c(=O)[nH]1` [8-Br-cGMP], for which the “JV after 8-Br-cGMP” value with hfRPE monolayers (100 μM both baths, FIG. 21, from 6.0) stood at 19.5 μl·cm^−2·hr^−1. Moreover, in the assay on hfRPE monolayers (four experiments, from 7.4±1.1), the “Jv after 8-Br-cGMP” value stood at 15.8±1.6 μl·cm^−2·hr^−1.

Consider `C[S+]([O-])c1ccc(-c2nc(-c3ccncc3)c(-c3ccc(F)cc3)[nH]2)cc1` (centres unmarked) [SB203580], for which the “decrease of IFNγ-induced JV” value in the assay on hfRPE monolayers (SB203580 5 μM) is “approximately 62%”. For the same molecule, the “effect on IFNγ induced JV” value in the assay on hfRPE monolayers (SB 203580 5 μM apical and basal after IFNγ 5 ng/mL, n=9) is reported as “decreased”. Moreover, in the assay on hfRPE monolayers (SB203580, n=3), the “effect on JV following inhibition by basal bath CFTRinh−172” value was “no further effect”. Also, in the assay with hfRPE monolayers (setting [1]), the “effect on baseline level of JV” value is reported as “no significant effect” and the “effect on the effect of IFNγ” value is “completely blocked”.

As to `N=C(N)NN` [aminoguanidine hydrochloride], the “effect on IFNγ induced increase in Jv” value in the assay with hfRPE monolayers (iNOS inhibitor 100 μM applied after IFNγ 5 ng/ml, n=3, hydrochloride) is “blocks”; in the assay with hfRPE monolayers (iNOS inhibitor 100 μM applied after IFNγ 5 ng/ml, n=3, listed as aminoguandidie hydrochloride, hydrochloride), “block”; with hfRPE monolayers (pre-treatment with iNOS inhibitor, n=3), “completely blocked”.

As to `O=S(=O)(O)c1cc(N=C=S)ccc1C=Cc1ccc(N=C=S)cc1S(=O)(=O)O` [DIDS], the “effect on spontaneous steady-state JV” value in the assay on hfRPE monolayers (DIDS 500 μM, n=2) was “no effect”. In addition, the “effect on JV following CFTRinh−172 inhibition of IFNγ-induced JV” value with hfRPE monolayers (DIDS, n=2) is “no further inhibition”. The “effect on IFNγ-induced JV increase” value in the assay on hfRPE monolayers (basal DIDS) was “not affected”.

As for `O=S(=O)(NCCNC/C=C/c1ccc(Br)cc1)c1cccc2cnccc12` [H-89], the “effect on IFNγ stimulated JV increase” value in the assay with hfRPE monolayers (H-89 40 μM after IFNγ) is on record as “significantly blocked”. Moreover, the “JV after H-89 added to IFNγ-stimulated hfRPE” value in the assay on hfRPE monolayers (H-89 40 μM both sides, from 20.1±0.2) was 8.3±1.3 μl·cm^−2·hr^−1. Besides, in the assay on hfRPE monolayers (setting [2]), the “effect on baseline level of JV” value is recorded as “no significant effect” and the “effect on the effect of IFNγ” value is “completely blocked”. Further, the “JV after H-89” value with hfRPE monolayers (four experiments, steady-state baseline 12.8±5.2) turned out to be 12.9±3.7 μl·cm^−2·hr^−1.

Regarding `Oc1ccc(-c2nc(-c3ccncc3)c(-c3ccc(F)cc3)[nH]2)cc1` [SB202190], the “block of IFNγ stimulated fluid transport” value in the assay with hfRPE monolayers (SB202190 1-5 μM) was “approximately 46%”.

With `C[C@@H]1C[C@@H]([C@H](O)CC2CC(=O)NC(=O)C2)C(=O)[C@@H](C)C1` [CHX, cycloheximide], in the assay on hfRPE cells (CHX 62 μM, with IFNγ), the “effect on IRF-2 protein” value is “no effect” and the “effect on de novo synthesis of IRF-1” value is recorded as “completely blocked”. In the assay with hfRPE cells (cycloheximide with IFNγ), the “effect on STAT1 synthesis” value is recorded as “partly inhibited”. In addition, the “effect of CHX per se on JV” value in the assay on hfRPE monolayers (62 μM, apical and basal, 30 minutes) is “no apparent change”. Besides, the “IFNγ-induced JV increase after CHX pre-treatment” value in the assay with hfRPE monolayers (4 hours of pre-treatment with CHX) is on record as “no IFNγ-induced JV increase”. Also, in the assay with hfRPE monolayers (CHX 62 μM 30 minutes), the “effect on ability of CFTRinh−172 to block IFNγ-induced JV increase” value is recorded as “did not affect”. For the same molecule, in the assay with hfRPE monolayers (CHX 62 μM 30 minutes before IFNγ 5 ng/ml), the “effect on IFNγ-induced increase in JV” value is given as “no effect”. Moreover, in the assay with hfRPE monolayers (IFNγ 5 ng/ml + CHX 62 μM, 24 hours, IFNγ alone 15.9, FIG. 14I), the “JV after IFNγ and CHX” value is 8.8 μl·cm^−2·hr^−1. Also, the “JV after IFNγ and CHX” value in the assay on hfRPE monolayers (another experiment, IFNγ alone 14.9) is on record as 9.8 μl·cm^−2·hr^−1.

`CC(C)N(CCCN)[N+]([O-])=NO` [NOC-5, 1-Hydroxy-2-oxo-3-(3-aminopropyl)-3-isopropyl-1-triazene]: the “effect on JV” value with hfRPE monolayers (NOC-5 apical and basal baths, n=3) is recorded as “more than doubled”.
